“Also recorded” adds a separate entry of the source. Read-outs that look alike come from different tables or passages of the source.
Legend:
FeaR (TynA inactivated) = details: 0.5 mM, FIG. 3C
Procedure: (§1) To develop sensors for aromatic amines, the TynA-FeaR system was first characterized in EcN. A sensor plasmid was constructed, which consisted of constitutively expressed TynA and FeaR from E. coli MG1655, and a reporter plasmid, which consisted of GFP under the control of PtynA (see e.g., FIG. 3B). […] Next, the sensitivity and selectivity to different ligands was characterized.
For fluorescence-based quantification, single colonies were transferred to 5 mL LB medium (VWR, Radnor, Pa., USA) in 14 mL round bottom tubes and incubated overnight at 250 rpm and 37° C. […]
Flow cytometry was performed as previously described. […] The fluorescence of the samples was measured using a Millipore Guava EasyCyte High Throughput flow cytometer with a 488 nm excitation laser and 512/18 nm emission filter. […] FlowJo (TreeStar Inc.) was used to obtain the arithmetic mean of the fluorescence distribution. The averages of the arithmetic means were calculated from three biological replicates. The average fluorescence of the non-fluorescent wild-type cell was subtracted from each sample to obtain the final fluorescence (au) values (Equation 2). To obtain the relative fluorescence in FIG. 6A-FIG. 6C, fluorescence values for each variant were normalized to the fluorescence of the wild-type sensor using Equation 3.

TynA-FeaR system = assay: microbe, parasite or virus in culture; details: for EC50: read-out: KA (half maximal constant); for Fmax / Fmin / n (Hill coefficient): wild-type TynA and FeaR, pCX008, pHJY022
Procedure: as §1
For fluorescence-based quantification, single colonies were transferred to 5 mL LB medium (VWR, Radnor, Pa., USA) in 14 mL round bottom tubes and incubated overnight at 250 rpm and 37° C. Unless otherwise specified, experimental cultures were prepared by diluting overnight cultures 100× into 0.6 mL M9 minimal medium supplemented with 1 mM MgSO4, […]), and 2% w/v glycerol as well as the respective ligands (DA, PEA, Tyra, and Trypta) in 2 mL 96-deep well plates. Cultures were grown for 24 h at 37° C. and 250 rpm. After 5 h and 24 h of incubation, samples were obtained from the cultures for flow cytometry analysis.
Flow cytometry was performed as previously described. Culture samples were collected and diluted to a final OD600 of ˜0.005-0.01 in […] filtered phosphate-buffered saline supplemented with 2 mg/ml kanamycin in 96-well assay microplates (U-bottom, REF-353910 from BD Biosciences, San Jose, Calif., USA). The fluorescence of the samples was measured using a Millipore Guava EasyCyte High Throughput flow cytometer with a 488 nm excitation laser and 512/18 nm emission filter. Cytometry data was gated by forward and side scatter. FlowJo (TreeStar Inc.) was used to obtain the arithmetic mean of the fluorescence distribution. The averages of the arithmetic means were calculated from three biological replicates. The average fluorescence of the non-fluorescent wild-type cell was subtracted from each sample to obtain the final fluorescence (au) values (Equation 2). To obtain the relative fluorescence in FIG. 6A-FIG. 6C, fluorescence values for each variant were normalized to the fluorescence of the wild-type sensor using Equation 3.
The Hill equation (Equations 4 and 5) was used to fit lines to the fluorescence data. The model was fit to the experimentally collected data by minimizing the root mean square error (RMSE; Equation 6).

[1] = tested on: wild-type TynA and A81L FeaR; assay: microbe, parasite or virus in culture; type: cell-based, E. coli MG1655; details: A81L FeaR
Procedure: (§2) Flow cytometry was performed as previously described. […] Cytometry data was gated by forward and side scatter.

[2] = tested on: wild-type TynA with A81P FeaR; assay: microbe, parasite or virus in culture; type: cell-based, E. coli MG1655; details: A81P FeaR; 5 h and 24 h; FIG. 25A-B
Procedure: as §2

[3] = tested on: TynA-KP with FeaR-KA I109N; assay: GFP fluorescence from PtynA-MG with TynA-KP and FeaR-KA I109N; type: cell-based, Klebsiella aerogenes
Source text: FIG. 32. […] Sensor system with PtynA-MG, TynA-KP and FeaR-KA was chosen as the wild type (WT) for further directed evolution. TynA-KP was employed to reduce the possible interference from DA during evolution processes. Values and error bars are the average and standard deviation of biological triplicate, respectively.
FIG. 33A-FIG. 33B. […] The expression of PtynA-MG was regulated by the TynA-KP with FeaR-KA I109N mutant. Points represent experimental data while lines represent the fitted curves. […] Values and error bars are the average and standard deviation of biological triplicate, respectively.

[4] = tested on: wild-type TynA with L108T FeaR; type: cell-based, E. coli MG1655; details: L108T FeaR; 24 h; FIG. 28B
Procedure: as §2

[5] = tested on: wild-type TynA with A81T FeaR; type: cell-based, E. coli MG1655; details: wild-type TynA; 1 mM, 24 h; FIG. 21
Procedure: as §2

[6] = tested on: wild-type TynA with M83Q FeaR; type: cell-based, E. coli MG1655; details: M83Q FeaR; 24 h; FIG. 28A
Procedure: as §2

[7] = tested on: G415H TynA with wild-type FeaR; type: cell-based, E. coli MG1655; details: G415H
Procedure: as §2

[8] = tested on: G494S TynA with wild-type FeaR; type: cell-based, E. coli MG1655; details: G494S TynA, wild-type FeaR; 5 h and 24 h; FIG. 18A-B
Procedure: as §2

[9] = tested on: wild-type TynA with W110C FeaR; type: cell-based, E. coli MG1655; details: W110C FeaR; 24 h; FIG. 28D
Procedure: as §2

[10] = tested on: wild-type TynA with W110S FeaR; type: cell-based, E. coli MG1655; details: W110S FeaR; 24 h; FIG. 28C
Procedure: as §2

G494S TynA and A81S FeaR = type: cell-based, E. coli MG1655; details: G494S TynA and A81S FeaR; 5 h and 24 h; FIG. 23A-B
Procedure: as §2

[11] = tested on: G494S TynA with A81T FeaR; type: cell-based, E. coli MG1655; details: G494S*
Procedure: as §2

What does the source list for NCCc1ccc(O)c(O)c1 [Dopamine, dopamine]?
induction of PtynA (FeaR (TynA inactivated)): eliminated; fold increase in GFP expression (TynA-FeaR system; 0.5 mM, in the presence of TynA, FIG. 3C): 410 fold; EC50 (TynA-FeaR system; Escherichia coli, 5 h): 28 µM; EC50 (TynA-FeaR system; Escherichia coli, 24 h): 68 µM; fold induction at 1250 µM (TynA-FeaR system; Escherichia coli, read-out: fold induction of the reporter): ~900; Fmax (TynA-FeaR system; FIG. 3D, 24 h induction): 881; Fmin (TynA-FeaR system; FIG. 3D, 24 h induction): 0.1; n (Hill coefficient) (TynA-FeaR system; FIG. 3D, 24 h induction): 3; Fmax (TynA-FeaR system; FIG. 14, 5 h induction): 258; Fmin (TynA-FeaR system; FIG. 14, 5 h induction): 4.4; n (Hill coefficient) (TynA-FeaR system; FIG. 14, 5 h induction): 1.5; response ([1]; 5 h, FIG. 24): lack of response; response ([1]; 24 h, FIG. 5C): lack of response; response [2]: lack of response; response ([3]; FeaR-KA I109N, 5 h and 24 h, FIG. 33A-B): lack of response; induction of fluorescence ([3]; I109N variant, 0.5 mM, 24 h, FIG. 32): not; response [4]: lack of response; effect of the A81T FeaR mutation on the response of the sensor [5]: significantly reduced; response [6]: lack of response; response ([7]; 5 h, FIG. 17B): lack of response; response ([7]; 24 h, FIG. 4D, listed as DA): lack of response; also recorded: minimal response; response [8]: lack of response; response [9]: lack of response; response [10]: lack of response; response (G494S TynA and A81S FeaR): lack of response; response ([11]; 5 h, FIG. 17A): lack of response; response ([11]; 24 h, FIG. 4C): lack of response

Reference: patent US20220372585A1, “Sensors for Aromatic Compounds and Methods of Making and Using Same” (Washington University, priority 2021, published 2022)
